Data taken from US9669060B2, “Compositions for preventing and treating uterine disease” (CORNELL UNIVERSITY, priority 2009, dated 2017).
Converted amounts (≈) assume the structure as drawn. Where two headings read alike, the source gives them in different places.

What was measured:
[1] = system: Escherichia coli recovered from uterine secretion from Holstein dairy cows (n = 80 isolates); assay: Antimicrobial susceptibility assay, MIC by broth microdilution (CLSI); assay type: cell-based; settings: for MIC50 / MIC90: Escherichia coli, 18 hours at 37° C.; for MIC50: MIC that inhibits at least 50% of isolates; for MIC90: MIC that inhibits at least 90% of isolates
Procedure: The MIC determinations were performed by broth microdilution method as described by the Clinical and Laboratory Standards Institute (CLSI, 2008) recommendations. […] The dilutions for each antimicrobial tested ranged from 0.25 μg/ml to 256 μg/ml for all the antibiotics and all tests were performed in duplicates. The cultures were diluted in Mueller-Hinton broth to 10^5 CFU/ml and an aliquot of 200 μl of the diluted culture was added to microtiter plate wells, containing various concentrations of the antimicrobials, to a total volume of 300 μl per well. The assays were carried out in duplicates and the required controls of adequacy of the broth to support the growth of the microorganism and the sterility of the broth done.
In addition to the uterine E. coli isolates tested, the reference strain of E. coli ATCC 25922 was included as quality control for MIC determination, as recommended by the CLSI (CLSI, 2008). The MIC that inhibits at least 50% (MIC50) and at least 90% (MIC90) of the isolates, as well as the minimum and maximum MIC, were also derived.

[2] = system: Escherichia coli isolated from the uterus of postpartum Holstein dairy cows (57 isolates); assay: Kinetic (spectrophotometric) MIC and growth curve test with antimicrobials; assay type: cell-based; settings: for MIC: Escherichia coli, minimum concentration that completely inhibited growth for 2-3 hours after beginning of stationary phase of control, estimated from graphics, read-out: Mean MICs; for Mean OD600: growth curve during 10 hours at 37° C., Mueller-Hinton broth
Description: Growth was periodically assessed spectrophotometrically in a microplate reader (Synergy™ 2, BioTek) at 600 nm. Curves were plotted with average of the duplicates. The results of this kinetic test were statistically analyzed to derive the mean MIC (mMIC) of the isolates for each antimicrobial tested.
A general linear mixed model was used to analyze the effect of the different antibiotic concentrations and bacteriophage MOIs on the growth curve of 57 E. coli isolates and determinate the mean values. The outcome variable was the OD600 of the Mueller-Hinton (BBL™) broth culture, which was modeled as a Gaussian (normally distributed data) variable. The assumption that the residuals were normally distributed was satisfied by visually evaluating the distribution plot of the studentized residuals. The independent variables offered to the model were: treatment (bacteriophage cocktail and all antimicrobials tested) and time (from 1 until 10). The interaction of treatment and time was also included in the model. […] This implies that data points were correlated within each E. coli isolate. To account appropriately for within correlation of the optical density, we modeled the error term by imposing a first-order autoregressive covariance structure. Variables and interaction were considered significant when their P-values<0.05.

[3] = system: E. coli from calves; settings: cited from earlier work
[4] = system: uropathogenic E. coli; settings: fimH immunization, murine model (Langermann et al., 1997); cited from earlier work

CC1(C)S[C@@H]2[C@H](NC(=O)[C@H](N)c3ccccc3)C(=O)N2[C@H]1C(=O)O [Ampicillin, ampicillin]
isolates resistant (CLSI criteria) [1]: 33.7% | MIC50 [1]: 16 µg/mL (≈ 45.8 µM) | MIC90 [1]: 32 µg/mL (≈ 91.6 µM) | MIC [2]: 16 µg/mL | Mean OD600 [2]: 0.14 | occurrence of ampicillin-resistant E. coli ([3]; feces of healthy lactating dairy calves (Sawant et al., 2007)): 48%

CO/N=C(\C(=O)N[C@@H]1C(=O)N2C(C(=O)O)=C(CSC(=O)c3ccco3)CS[C@H]12)c1csc(N)n1 [Ceftiofur, ceftiofur]
isolates resistant (CLSI criteria) [1]: 1.2% | isolates susceptible [1]: 98.7% | MIC50 [1]: 1 µg/mL (≈ 1.91 µM) | MIC90 [1]: 1 µg/mL (≈ 1.91 µM) | MIC [2]: 16 µg/mL | Mean OD600 [2]: 0.05 | prevalence rate of ceftiofur-resistant E. coli ([3]; Bradford et al., 1999): 11% | prevalence rate of ceftiofur-resistant E. coli ([3]; Sawant et al., 2007): 13% | occurrence of ceftiofur-resistant E. coli ([3]; diarrheic calves (White et al.)): 69%

O=C(N[C@H](CO)[C@H](O)c1ccc([N+](=O)[O-])cc1)C(Cl)Cl [Chloramphenicol, chloramphenicol]
isolates resistant (CLSI criteria) [1]: 100% | MIC50 [1]: 64 µg/mL (≈ 198 µM) | MIC90 [1]: 128 µg/mL (≈ 396 µM) | MIC [2]: 128 µg/mL | Mean OD600 [2]: 0.18

CS(=O)(=O)c1ccc([C@@H](O)[C@@H](CF)NC(=O)C(Cl)Cl)cc1 [Florfenicol, florfenicol]
isolates resistant (CLSI criteria) [1]: 100% | MIC50 [1]: 16 µg/mL (≈ 44.7 µM) | MIC90 [1]: 16 µg/mL (≈ 44.7 µM) | MIC [2]: 16 µg/mL | Mean OD600 [2]: 0.10 | E. coli isolates resistant to both florfenicol and chloramphenicol ([3]; diarrheic dairy calves (White et al., 2000)): 85%

CN[C@@H]1[C@H](O)[C@H](NC)[C@H]2O[C@@]3(O)C(=O)C[C@@H](C)O[C@H]3O[C@@H]2[C@H]1O [Spectinomycin, spectinomycin]
isolates resistant (CLSI criteria) [1]: none of them were resistant | MIC50 [1]: 32 µg/mL (≈ 96.3 µM) | MIC90 [1]: 64 µg/mL (≈ 193 µM) | MIC [2]: 32 µg/mL | Mean OD600 [2]: 0.17

[H]/N=C(/N)N[C@H]1[C@H](O)[C@@H](O)[C@H](O[C@@H]2O[C@@H](C)[C@](O)(C=O)[C@H]2O[C@@H]2O[C@@H](CO)[C@H](O)[C@@H](O)[C@@H]2NC)[C@@H](N/C(N)=N\[H])[C@@H]1O [Streptomycin, streptomycin]
isolates resistant (CLSI criteria) [1]: none of them were resistant | MIC50 [1]: 8 µg/mL (≈ 13.8 µM) | MIC90 [1]: 8 µg/mL (≈ 13.8 µM) | MIC [2]: 8 µg/mL | Mean OD600 [2]: 0.11

CN(C)[C@@H]1C(O)=C(C(N)=O)C(=O)[C@@]2(O)C(O)=C3C(=O)c4c(O)cccc4[C@@](C)(O)[C@H]3C[C@@H]12 [Tetracycline, tetracycline]
MIC50 [1]: 1 µg/mL (≈ 2.25 µM) | MIC90 [1]: 2 µg/mL (≈ 4.5 µM) | MIC [2]: 2 µg/mL | Mean OD600 [2]: 0.05

fimH: fimH adhesin of type 1 pili used for immunization in a murine model (Langermann et al., 1997)
prevention of in vivo colonization of the bladder mucosa [4]: 99%
